Where two headings read alike, the source gives them in different places.
Key:
[1] = for HPLC Conc./: based on free acid
Excerpt: pH-dependent solubility of the HBI- 3808 sodium salt of Pattern 2 was studied.
pH dependent solubility of the HBI- 3808 sodium salt of Pattern 5 was studied.

[2] = Stability study at 25° C./60% RH, 40° C./75% RH and 60° C. (XRPD, HPLC purity, impurity tracking); details: for XRPD: number = sodium salt XRPD Pattern; for RRT 0.801 / RRT 0.959 / RRT 1.000 (HBI-3808) / RRT 1.025 (Isomer of HBI-3808) / RRT 1.767 / Total Impurities / RRT 1.932: impurity tracking
Excerpt: Stability of HBI-3808 Sodium Salt Pattern 2 was studied over 13 weeks.
Table 2F presents impurity tracking results from a 13-week stability study of HBI-3808 sodium salt of Pattern 2. […]

[3] = Dynamic vapor sorption (DVS) analysis; assay type: physicochemical
Method: GC analysis indicated residual solvent contents of 2847 ppm methanol; and 27 ppm TBME. […] No residual methanol or TBME was detected due to signal over-lap. […] TG-DSC analysis indicated two weight losses. The first weight loss of 2.3 wt. % was observed between 20-170° C. […] In the DSC thermogram, three endothermic events were observed (FIG. 17I). […] FT-IR (FIG. 17J) and Raman spectra (FIG. 17K) were recorded for reference. […] XRPD pattern of the ethanolamine salt was retained post-DVS (FIG. 17N). […] However, at the end of the experiment the solids on the microscope slide had discolored (FIG. 17O).

[4] = Hydration study in methanol/water aw 0.1, 0.5 and 0.9; assay type: physicochemical
Excerpt: Hydration studies of ethanolamine salt.

[5] = Varying humidity (VH)-XRPD; assay type: physicochemical
Method: During the sorption phase, sodium salt Pattern 2 was observed between 40-60% RH. […] A mixture of sodium salt Pattern 2 and 5 was also observed at 80% RH. […] During the second desorption, from 90% RH to 40% RH, sodium salt Pattern 5 was maintained.
VH-XRPD analysis was carried out between 40-0% RH (FIG. 5L).

[6] = 40° C./75% RH (open vial), 1 Week
[7] = 40° C./75% RH (open vial), 2 Weeks
[8] = 40° C./75% RH (open vial), 4 Weeks

For `CC1CCC2(C(=O)[O-])CCC3(C)C(=CCC4C5(C)CC(O)C(O)C(C)(CO)C5CCC43C)C2C1(C)O.[Na+]` (stereo not shown) [HBI-3808 sodium salt of Pattern 5, sodium salt of 23-hydroxytormentic acid], the “final Measured pH” value ([1]; FaSSGF) was 9.34, the “HPLC Conc./” value ([1]; FaSSGF) was over 150.33 mg/mL and the concentration ([1]; pH 1.2) was under 1000 ng/mL. For the same compound, the “HPLC Conc./” value ([1]; target pH 1.2 chloride buffer, start 200 mg/mL (ethanolamine salt 100 mg/mL)) was under 0.001 mg/mL, the “HPLC Conc./” value ([1]; target pH 3.0 acetate buffer) was under 0.001 mg/mL and the “HPLC Conc./” value ([1]; target pH 4.0 acetate buffer) was under 0.001 mg/mL. The “HPLC Conc./” value ([1]; target pH 6.8 phosphate buffer) was 0.25 mg/mL, the “HPLC Conc./” value ([1]; target pH 8.0 phosphate buffer) was 12.84 mg/mL and the HPLC/ % area ([2]; 25° C./60% RH (open vial), 1 Week) was 96.4 % area. The XRPD ([2]; 25° C./60% RH (open vial), 1 Week, * Traces of sodium salt Pattern 2) was 5, the HPLC/ % area ([2]; 25° C./60% RH (open vial), 2 Weeks) was 96.7 % area and the XRPD ([2]; 25° C./60% RH (open vial), 2 Weeks, * Traces of Pattern 2) was 5. For the same compound, the HPLC/ % area ([2]; 25° C./60% RH (open vial), 4 Weeks) was 96.3 % area, the XRPD ([2]; 25° C./60% RH (open vial), 4 Weeks, * Traces of Pattern 2) was 5 and the HPLC/ % area [2, 6] was 96.7 % area. The XRPD [2, 6] was 5, the HPLC/ % area [2, 7] was 97.5 % area and the XRPD [2, 7] was 5. The HPLC/ % area [2, 8] was 96.6 % area, the XRPD [2, 8] was 5 and the HPLC/ % area ([2]; 60° C. (closed vial), 1 Week) was 96.1 % area. It also gave an XRPD ([2]; 60° C. (closed vial), 1 Week) of 5, an HPLC/ % area ([2]; 60° C. (closed vial), 2 Weeks) of 97.3 % area and an XRPD ([2]; 60° C. (closed vial), 2 Weeks) of 5. The HPLC/ % area ([2]; 60° C. (closed vial), 4 Weeks) was 96.1 % area, the XRPD ([2]; 60° C. (closed vial), 4 Weeks) was 5 and the “change in chemical purity by HPLC over the stability study” value ([2]; all conditions (25° C./60% RH; 40° C./75% RH; 60° C.), 13 weeks (Pattern 5: 4 weeks)) was “no significant decrease in chemical purity”. For the same compound, the “XRPD pattern over the stability study” value ([2]; all conditions, 4 weeks (Pattern 5), 13 weeks (ethanolamine salt)) was “Sodium salt Pattern 5 was retained”, the “RRT 0.801” value ([2]; 25° C./60% RH, 1 week) was 0.37 % area and the “RRT 0.959” value ([2]; 25° C./60% RH, 1 week) was 0.14 % area. The “RRT 1.000 (HBI-3808)” value ([2]; 25° C./60% RH, 1 week) was 96.39 % area, the “RRT 1.025 (Isomer of HBI-3808)” value ([2]; 25° C./60% RH, 1 week) was 2.67 % area and the “RRT 1.767” value ([2]; 25° C./60% RH, 1 week) was 0.43 % area. The “Total Impurities” value ([2]; 25° C./60% RH, 1 week) was 3.61 % area, the “RRT 0.801” value ([2]; 25° C./60% RH, 2 weeks) was 0.30 % area and the “RRT 1.000 (HBI-3808)” value ([2]; 25° C./60% RH, 2 weeks) was 96.96 % area. The “RRT 1.025 (Isomer of HBI-3808)” value ([2]; 25° C./60% RH, 2 weeks) was 2.74 % area, the “Total Impurities” value ([2]; 25° C./60% RH, 2 weeks) was 3.04 % area and the “RRT 0.801” value ([2]; 25° C./60% RH, 4 weeks) was 0.26 % area. For the same compound, the “RRT 0.959” value ([2]; 25° C./60% RH, 4 weeks) was 0.13 % area, the “RRT 1.000 (HBI-3808)” value ([2]; 25° C./60% RH, 4 weeks) was 96.33 % area and the “RRT 1.025 (Isomer of HBI-3808)” value ([2]; 25° C./60% RH, 4 weeks) was 2.76 % area. For the same compound, the “RRT 1.767” value ([2]; 25° C./60% RH, 4 weeks) was 0.30 % area, the “RRT 1.932” value ([2]; 25° C./60% RH, 4 weeks) was 0.21 % area and the “Total Impurities” value ([2]; 25° C./60% RH, 4 weeks) was 3.67 % area. The “RRT 0.801” value ([2]; 40° C./75% RH, 1 week) was 0.34 % area, the “RRT 0.959” value ([2]; 40° C./75% RH, 1 week) was 0.13 % area and the “RRT 1.000 (HBI-3808)” value ([2]; 40° C./75% RH, 1 week) was 96.67 % area. For the same compound, the “RRT 1.025 (Isomer of HBI-3808)” value ([2]; 40° C./75% RH, 1 week) was 2.52 % area, the “RRT 1.767” value ([2]; 40° C./75% RH, 1 week) was 0.34 % area and the “Total Impurities” value ([2]; 40° C./75% RH, 1 week) was 3.33 % area. The “RRT 0.801” value ([2]; 40° C./75% RH, 2 weeks) was 0.37 % area, the “RRT 1.000 (HBI-3808)” value ([2]; 40° C./75% RH, 2 weeks) was 97.47 % area and the “RRT 1.025 (Isomer of HBI-3808)” value ([2]; 40° C./75% RH, 2 weeks) was 2.16 % area. For the same compound, the “Total Impurities” value ([2]; 40° C./75% RH, 2 weeks) was 2.53 % area, the “RRT 0.801” value ([2]; 40° C./75% RH, 4 weeks) was 0.42 % area and the “RRT 0.959” value ([2]; 40° C./75% RH, 4 weeks) was 0.16 % area. For the same compound, the “RRT 1.000 (HBI-3808)” value ([2]; 40° C./75% RH, 4 weeks) was 96.60 % area, the “RRT 1.025 (Isomer of HBI-3808)” value ([2]; 40° C./75% RH, 4 weeks) was 2.34 % area and the “RRT 1.767” value ([2]; 40° C./75% RH, 4 weeks) was 0.25 % area. For the same compound, the “RRT 1.932” value ([2]; 40° C./75% RH, 4 weeks) was 0.22 % area, the “Total Impurities” value ([2]; 40° C./75% RH, 4 weeks) was 3.40 % area and the “RRT 0.801” value ([2]; 60° C., 1 week) was 0.28 % area. The “RRT 0.959” value ([2]; 60° C., 1 week) was 0.15 % area, the “RRT 1.000 (HBI-3808)” value ([2]; 60° C., 1 week) was 96.23 % area and the “RRT 1.025 (Isomer of HBI-3808)” value ([2]; 60° C., 1 week) was 2.94 % area. The “RRT 1.767” value ([2]; 60° C., 1 week) was 0.40 % area, the “Total Impurities” value ([2]; 60° C., 1 week) was 3.77 % area and the “RRT 0.801” value ([2]; 60° C., 2 weeks) was 0.38 % area. The “RRT 1.000 (HBI-3808)” value ([2]; 60° C., 2 weeks) was 97.33 % area, the “RRT 1.025 (Isomer of HBI-3808)” value ([2]; 60° C., 2 weeks) was 2.29 % area and the “Total Impurities” value ([2]; 60° C., 2 weeks) was 2.67 % area. The “RRT 0.801” value ([2]; 60° C., 4 weeks) was 0.37 % area, the “RRT 0.959” value ([2]; 60° C., 4 weeks) was 0.19 % area and the “RRT 1.000 (HBI-3808)” value ([2]; 60° C., 4 weeks) was 96.13 % area. For the same compound, the “RRT 1.025 (Isomer of HBI-3808)” value ([2]; 60° C., 4 weeks) was 2.71 % area, the “RRT 1.767” value ([2]; 60° C., 4 weeks) was 0.36 % area and the “RRT 1.932” value ([2]; 60° C., 4 weeks) was 0.23 % area. For the same compound, the “Total Impurities” value ([2]; 60° C., 4 weeks) was 3.87 % area, the “RRT 0.801” value ([2]; T = 0) was 0.35 % area and the “RRT 1.000 (HBI-3808)” value ([2]; T = 0) was 96.83 % area. For the same compound, the “RRT 1.025 (Isomer of HBI-3808)” value ([2]; T = 0) was 2.66 % area, the “RRT 1.767” value ([2]; T = 0) was 0.17 % area and the “Total Impurities” value ([2]; T = 0) was 3.17 % area. The “input purity by HPLC” value ([2]; input material of the stability study (baseline)) was 96.8 % area, the “XRPD of recovered material post-DVS” value [3] was “consistent with HBI-3808 sodium salt of Pattern 5” and the “reversibility of mass uptake/loss” value ([3]; Pattern 2: second DVS cycle) was “reversible”. The “water (mass) uptake” value ([3]; at 80% RH/25° C. (Pattern 2: second DVS cycle)) was 0.8 wt. %, the “XRPD of solids recovered at the end of the experiment” value [4] was “consistent with sodium salt Pattern 2” and the “XRPD pattern / form stability over relative humidity” value ([5]; 0-90% RH) was “stable to relative humidity between 90-0% RH”. The “XRPD pattern during desorption” value ([5]; 40-0% RH, 30° C.) was “no change in diffractogram”.

From patent US20250326785A1, “SODIUM SALT AND ETHANOLAMINE SALT OF 23-HYDROXYTORMENTIC ACID” (HUYABIO International, LLC, priority 2024, published 2025)
